Reference: US20090131356A1, “miR-15, miR-26, miR-31, miR-145, miR-147, miR-188, miR-215, miR-216, miR-331, mmu-miR-292-3P REGULATED GENES AND PATHWAYS AS TARGETS FOR THERAPEUTIC INTERVENTION” (ASURAGEN, INC., priority 2006, published 2009)

Legend:
[1] = test system: parental lung cancer cells; assay: Alamar Blue proliferation assay, average over parental lung cancer cell lines; format: cell-based, human; conditions: average of 12 parental lung cancer cell lines; vs negative control miRNA (=100%); 72 hours (Calu-3 10 days)
Description: (§1) The inventors assessed the therapeutic effect of hsa-miR-147 for lung cancer by using 12 individual lung cancer cell lines. To measure cellular proliferation of lung cancer cells, the following parental non-small cell lung cancer (NSCLC) cells were used: cells derived from lung adenocarcinoma (A549, H1299, H522, H838, Calu-3, HCC827, HCC2935), cells derived from lung squamous cell carcinoma (H520, H226), cells derived from lung adenosquamous cell carcinoma (H596), cells derived from lung bronchioalveolar carcinoma (H1650), and cells derived from lung large cell carcinoma (H460). In addition to these parental cell lines, highly metastatic NSCLC cells were used that stably express the firefly luciferase gene: A549-luc, H460-luc, HCC827-luc, H1650-luc, H441-luc. Unlike the parental cell lines, these metastatic cells readily migrate to distant sites of the test animal and form metastases upon subcutaneous, orthotopic, or intravenous injection. Synthetic hsa-miR-147 or negative control miRNA was delivered via lipid-based transfection into A549, H1299, H522, H838, Calu-3, HCC827, HCC2935, H520, H596, H1650, H460, A549-luc, H460-luc, HCC827-luc, H1650-luc, H441-luc cells and via electroporation into H226 cells. […]

Du145 cells = assay: Alamar Blue proliferation assay, Du145; format: cell-based, human; conditions: 30 nM, normalized to negative control miRNA (100% proliferation)
Description: (§2) The inventors assessed the therapeutic effect of hsa-miR-147 for prostate cancer by using 4 individual human prostate cancer cell lines. To measure cellular proliferation of prostate cancer cells, the following prostate cancer cell lines were used: PPC-1 and PC3, derived from a bone metastasis; Du145, derived from a brain metastasis; RWPE2, derived from prostate cells immortalized by human papillomavirus 18 and transformed by the K-RAS oncogene (Bello et al., 1997; Stone et al., 1978; Brothman et al., 1991). PC3, PPC-1, and Du145 cells lack expression of the prostate-specific antigen (PSA) and are independent of androgen receptor (AR) signaling. In contrast, RWPE2 cells test positive for PSA and AR.
(§3) PPC-1, Du145 and RWPE2 cells were transfected with synthetic hsa-miR-147 (Pre-miR™-hsa-miR-147, Ambion cat. no. AM17100) or negative control miRNA (NC; Pre-miR™ microRNA Precursor Molecule-Negative Control #2; Ambion cat. no. AM17111) in a 96-well format using a lipid-based transfection reagent. […] Proliferation was assessed 4-7 days post-transfection using Alamar Blue™ (Invitrogen) following the manufacturer's instructions. […] Fluorescent light units (FLU) were measured after 3 hours, normalized to the control, and plotted as percent change in proliferation. […]

[2] = test system: metastatic lung cancer cells; assay: Alamar Blue proliferation assay, average over metastatic luciferase-expressing lung cancer cell lines; format: cell-based, human; conditions: average of 5 metastatic luc lung cancer cell lines; vs negative control miRNA (=100%); 72 hours
Description: as §1

[3] = test system: human prostate cancer cells PPC-1, Du145 and RWPE2; assay: Alamar Blue proliferation assay, average over prostate cancer cell lines; format: cell-based; conditions: 30 nM, 4-7 days post-transfection; average of PPC-1, Du145, RWPE2; vs negative control miRNA (100%)
Description: as §2, §3

Substance: hsa-miR-147: Synthetic pre-miR-147 (Ambion AM17100; Dharmacon in vivo); mature sequence GUGUGUGGAAAUGCUUCUGC, MIMAT0000251, SEQ ID NO:114 (synthetic pre-miR (Ambion/Dharmacon), chemistry not given here; listed as Homo sapiens)
- inhibition of cellular proliferation, on average [1]: 25%
- % proliferation (Du145 cells): 61.50%
- inhibition of cell growth, on average [2]: 42%
- inhibition of cellular proliferation, on average [3]: 27.48%
